Experimental data published in paper PMC10133576, “Interactions between curcumin and human salt-induced kinase 3 elucidated from computational tools and experimental methods” (Frontiers in Pharmacology, 2023).

Target: human salt-induced kinase 3 (SIK3) (Homo sapiens, UniProt Q9Y2K2)
Assay: KinaseProfiler radiometric protein kinase assay (Eurofins), ATP at Km
Type: biochemical

Chain of human salt-induced kinase 3 (SIK3) (Q9Y2K2 whole entry): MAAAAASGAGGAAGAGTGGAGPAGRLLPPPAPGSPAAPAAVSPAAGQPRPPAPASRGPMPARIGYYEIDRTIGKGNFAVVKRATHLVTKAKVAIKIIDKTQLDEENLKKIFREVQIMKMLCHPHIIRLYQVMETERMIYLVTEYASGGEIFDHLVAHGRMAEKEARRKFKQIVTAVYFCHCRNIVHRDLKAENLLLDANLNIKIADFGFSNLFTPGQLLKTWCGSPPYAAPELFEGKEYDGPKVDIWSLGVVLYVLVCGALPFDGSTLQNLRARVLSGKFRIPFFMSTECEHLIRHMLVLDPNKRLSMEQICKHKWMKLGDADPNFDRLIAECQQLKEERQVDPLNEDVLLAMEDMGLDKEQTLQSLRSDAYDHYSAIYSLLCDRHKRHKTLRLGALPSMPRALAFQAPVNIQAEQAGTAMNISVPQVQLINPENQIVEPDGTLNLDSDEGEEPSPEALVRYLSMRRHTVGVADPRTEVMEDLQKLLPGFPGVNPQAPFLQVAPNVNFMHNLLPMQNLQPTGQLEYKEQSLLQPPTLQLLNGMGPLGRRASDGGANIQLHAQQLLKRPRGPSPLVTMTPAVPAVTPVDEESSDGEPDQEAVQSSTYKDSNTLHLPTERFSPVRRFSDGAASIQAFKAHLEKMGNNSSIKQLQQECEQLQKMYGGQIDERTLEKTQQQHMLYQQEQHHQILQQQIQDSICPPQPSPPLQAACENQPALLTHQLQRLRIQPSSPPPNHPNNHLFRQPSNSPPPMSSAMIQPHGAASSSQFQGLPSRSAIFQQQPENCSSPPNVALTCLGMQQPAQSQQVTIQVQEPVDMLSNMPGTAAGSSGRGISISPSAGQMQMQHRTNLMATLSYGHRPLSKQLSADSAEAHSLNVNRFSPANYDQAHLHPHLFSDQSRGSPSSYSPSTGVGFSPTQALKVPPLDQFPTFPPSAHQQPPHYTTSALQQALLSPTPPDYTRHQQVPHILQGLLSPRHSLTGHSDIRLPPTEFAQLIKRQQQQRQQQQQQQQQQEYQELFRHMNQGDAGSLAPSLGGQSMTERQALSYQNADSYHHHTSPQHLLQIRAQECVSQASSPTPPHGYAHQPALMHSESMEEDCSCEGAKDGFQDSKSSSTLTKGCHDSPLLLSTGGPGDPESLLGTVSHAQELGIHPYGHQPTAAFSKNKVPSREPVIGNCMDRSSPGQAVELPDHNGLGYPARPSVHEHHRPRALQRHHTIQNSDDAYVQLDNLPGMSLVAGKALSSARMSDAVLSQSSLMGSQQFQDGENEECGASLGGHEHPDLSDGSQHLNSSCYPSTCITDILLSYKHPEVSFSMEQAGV

Question: With COc1cc(/C=C/C(=O)CC(=O)/C=C/c2ccc(O)c(OC)c2)ccc1O [curcumin] as the compound, how does the IC50 read?
Answer: 131 nM
